Reference: PMC8333062, “Chemical tools for epichaperome-mediated interactome dysfunctions of the central nervous system” (Nature Communications, 2021)
“And” between values parts separate entries of the source, which are not always exact repeats. Equal entries are not always repeated.

How the values were obtained:
patient-derived GSCs = test: GSC viability (CellTiter-Glo, 48 h); format: cell-based, human; design: %Survival of cells at day 0 (ATP levels): concentration or dose not given beside the values; %Survival (ATP levels): reference not given here; settings: for %Survival (ATP levels): 1 μM, 48 h, individual replicates, listed as PU-HZ151; for %Survival of cells at day 0 (ATP levels): mean
[1] = Metabolic stability in liver microsomes; format: in vitro ADME, human; settings: No inhibitor
Method: All samples were assayed in duplicate.
To identify cytochrome P450 enzymes responsible for PU-HZ151’s metabolism in human liver microsomes the following procedure was followed. Phosphate buffer (100 mM, pH 7.4) was prepared monthly and stored at 4 °C. Frozen stock solutions of human liver microsomes (Life Technologies; Cat# HMMCPL) were used once after thawing and were not refrozen. NADPH stock solution (50 mM) in distilled water was prepared fresh daily. Stock solutions of PU-HZ151 (1 mM in DMSO) and CYP inhibitors, furafylline (10 mM) for CYP1A2, tranylcypromine (2 mM) for CYP2A6, ketoconazole (1 mM) for CYP3A, troleandomycin (20 mM) for CYP3A4, orphenadrine (50 mM) for CYP2B6, montelukast (3 mM) for CYP2C8, sulfaphenazole (10 mM) for CYP2C9, benzylnirvanol (1 mM) for CYP2C19, quinidine (1 mM) for CYP2D6, and 1-aminobenzotriazole (1 mM) for all the P450 enzymes were stored at −20 °C. The stock solutions of these P450 inhibitors were prepared in DMSO. General procedure: PU-HZ151 (1 µM) was incubated with human liver microsomes (0.5 mg protein mL^−1), 2.5 mM NADPH, 3.3 mM magnesium chloride, and chemical inhibitors (various concentrations) in phosphate buffer (100 mM, pH 7.4) at 37 °C for up to 60 min. […] The concentration of the chemical inhibitors used in the assay were furafylline (10 μM), tranylcypromine (2 μM), ketoconazole (1 μM), troleandomycin (20 μM), orphenadrine (50 μM), montelukast (3 μM), sulfaphenazole (10 μM), benzylnirvanol (1 μM), quinidine (1 μM), and 1-aminobenzotriazole (1 mM) for all the P450 enzymes. Timing of the reactions was started following the addition of NADPH/magnesium chloride mix and PU-HZ151. Time-dependent chemical inhibitors (furafylline, troleandomycin, orphenadrine, and 1-aminobenzotriazole) were preincubated with human microsomes in the presence of NADPH and magnesium chloride for 15 min before the addition of PU-HZ151 and timing of reactions was started after addition of PU-HZ151. […]

HER2 in SKBR3 cells = test: HER2 degradation; format: cell-based, human

CC(C)(C)CNCCn1c(Sc2cc3c(cc2I)OCO3)nc2c(N)ncnc21 [Compound 85]
%Survival (ATP levels) (patient-derived GSCs; GSC #5): 31.63% and 18.68% and 4.03% and -9.88% | %Survival (ATP levels) (patient-derived GSCs; GSC #6): -14.27% and -27.68% and -18.96% and -23.61% | %Survival (ATP levels) (patient-derived GSCs; GSC #7): -51.27% and -33.16% and -43.96% and -19.32% | %Survival (ATP levels) (patient-derived GSCs; GSC #8): -82.2411% and -82.5656% and -44.1066% and -65.5015% and -65.6835% and -64.1317% | %Survival (ATP levels) (patient-derived GSCs; GSC #9): -79.4354% and -88.1536% and -74.4757% and -75.2771% and -91.5176% and -88.8402% | %Survival (ATP levels) (patient-derived GSCs; GSC #10): -43.1943% and -48.7032% and -76.5217% and -90.9365% | %Survival (ATP levels) (patient-derived GSCs; GSC #13): -9.18% and -20.17% and 1.94% and -5.51% and 23.62% and 22.18% | %Survival (ATP levels) (patient-derived GSCs; GSC #15): -58.61% and -73.45% and -36.64% and -48.92% | %Survival (ATP levels) (patient-derived GSCs; GSC #18): -64.4% and -60.27% and -57.05% and -50.97% | %Survival (ATP levels) (patient-derived GSCs; GSC #19): -11.96% and -35.33% and -40.35% and -2.66% and -9.81% | %Survival (ATP levels) (patient-derived GSCs; GSC #24): -81.22% and -79.53% and -20.38% and -28.49% | %Survival (ATP levels) (patient-derived GSCs; GSC #30): -95.74% and -99.62% and -58.98% and -67.84% and -66.79% and -85.07% and -94.89% | %Survival (ATP levels) (patient-derived GSCs; GSC #31): 36.5% and 32.49% and 59.07% and 79.62% and 33.55% and 9% | %Survival of cells at day 0 (ATP levels) (patient-derived GSCs; GSC# 5): 11.1% | %Survival of cells at day 0 (ATP levels) (patient-derived GSCs; GSC# 6): -21.1% | %Survival of cells at day 0 (ATP levels) (patient-derived GSCs; GSC# 8): -67.4% | %Survival of cells at day 0 (ATP levels) (patient-derived GSCs; GSC# 9): -82.9% | %Survival of cells at day 0 (ATP levels) (patient-derived GSCs; GSC# 10): -64.8% | %Survival of cells at day 0 (ATP levels) (patient-derived GSCs; GSC# 13): 2.1% | %Survival of cells at day 0 (ATP levels) (patient-derived GSCs; GSC# 15): -54.4% | %Survival of cells at day 0 (ATP levels) (patient-derived GSCs; GSC# 17): 16.9% | %Survival of cells at day 0 (ATP levels) (patient-derived GSCs; GSC# 18): -58.2% | %Survival of cells at day 0 (ATP levels) (patient-derived GSCs; GSC# 19): -20% | %Survival of cells at day 0 (ATP levels) (patient-derived GSCs; GSC# 24): -52.4% | %Survival of cells at day 0 (ATP levels) (patient-derived GSCs; GSC# 30): -81.3% | %Survival of cells at day 0 (ATP levels) (patient-derived GSCs; GSC# 31): 41.7% | % PU-HZ151 remaining ([1]; 15 min): 52.7% | % PU-HZ151 remaining ([1]; 30 min): 34.7% | % PU-HZ151 remaining ([1]; 60 min): 17.2% | IC50 (HER2 in SKBR3 cells): 8.2 nM
